The values below come from US12497365B2, “4-pyridinyl formamide compound or derivative thereof, preparation method therefor, herbicidal composition and use thereof” (Qingdao Kingagroot Chemical Compound Co., Ltd., priority 2019, dated 2025).

Experiment in all cases: Weeding effect in post-emergence stage
Common to all, as to type: in vivo
Conditions in all cases: active ingredient 2000 g/ha, 3 weeks after application, fresh weight control rate

In one test the test system is Chenopodium album. The method in brief:
(§1)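 Greenhouse post-emergence test: 2-3 leaf plants sprayed at 125-2000 g/ha, then fresh weight control rate scored at 3 weeks.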

The subject of a further test is Descurainia sophia. The method in brief:
as §1

The next test has as its system Abutilon theophrasti. The method in brief: as §1
The subject of test [1] is Amaranthus retroflexus L. The method in brief: as §1

`Cn1nnnc1NC(=O)c1ccnc(-c2cccnc2C(F)(F)F)c1Cl` [Compound 1-141]: the “Weeding effect, activity level (growth control rate), Chenopodium album” value (shortened to “Weeding effect … Chenopodium album”) in the test with Chenopodium album is 5 (Level 5: growth control rate is above 85%). Also, the “Weeding effect, activity level (growth control rate), Descurainia sophia” value (from here on “Weeding effect … Descurainia sophia”) in the test with Descurainia sophia is listed as 5 (Level 5: growth control rate is above 85%). Besides, the “Weeding effect, activity level (growth control rate), Abutilon theophrasti” value (from here on “Weeding effect … Abutilon theophrasti”) in the test with Abutilon theophrasti is on record as 5 (Level 5: growth control rate is above 85%). For the same molecule, the “Weeding effect, activity level (growth control rate), Amaranthus retroflexus L.” value (“Weeding effect … Amaranthus retroflexus L.” below) in test [1] is given as 5 (Level 5: growth control rate is above 85%).

`COc1c(C(=O)Nc2nnnn2C)ccnc1-c1ccc(F)cc1` [Compound 1-200]: in the test with Chenopodium album, the “Weeding effect … Chenopodium album” value is on record as 5 (Level 5: growth control rate is above 85%). The “Weeding effect … Descurainia sophia” value in the test with Descurainia sophia is reported as 5 (Level 5: growth control rate is above 85%). For the same molecule, the “Weeding effect … Abutilon theophrasti” value in the test on Abutilon theophrasti is 5 (Level 5: growth control rate is above 85%). For the same molecule, the “Weeding effect … Amaranthus retroflexus L.” value in test [1] was 5 (Level 5: growth control rate is above 85%).

Consider `Cn1nnnc1NC(=O)c1ccnc(-c2cc(F)ccc2F)c1Cl` [Compound 1-63], for which, in the test with Chenopodium album, the “Weeding effect … Chenopodium album” value is 5 (Level 5: growth control rate is above 85%). Also, the “Weeding effect … Descurainia sophia” value in the test on Descurainia sophia is 5 (Level 5: growth control rate is above 85%). Further, the “Weeding effect … Abutilon theophrasti” value in the test with Abutilon theophrasti is recorded as 5 (Level 5: growth control rate is above 85%). Also, the “Weeding effect … Amaranthus retroflexus L.” value in test [1] was 5 (Level 5: growth control rate is above 85%).

On to `Cn1nnnc1NC(=O)c1ccnc(-c2ccc(C(F)(F)F)nc2)c1Cl` [Compound 1-142], for which the “Weeding effect … Chenopodium album” value in the test with Chenopodium album was 5 (Level 5: growth control rate is above 85%). Further, the “Weeding effect … Descurainia sophia” value with Descurainia sophia is 5 (Level 5: growth control rate is above 85%). Besides, the “Weeding effect … Abutilon theophrasti” value in the test with Abutilon theophrasti is given as 5 (Level 5: growth control rate is above 85%). The “Weeding effect … Amaranthus retroflexus L.” value in test [1] is 5 (Level 5: growth control rate is above 85%).

With `Cn1nnnc1NC(=O)c1ccnc(-c2cccc(C#N)c2)c1Cl` [Compound 1-49], the “Weeding effect … Chenopodium album” value in the test with Chenopodium album is 5 (Level 5: growth control rate is above 85%). For the same molecule, in the test with Descurainia sophia, the “Weeding effect … Descurainia sophia” value was 5 (Level 5: growth control rate is above 85%). For the same molecule, the “Weeding effect … Abutilon theophrasti” value in the test on Abutilon theophrasti was 5 (Level 5: growth control rate is above 85%). For the same molecule, the “Weeding effect … Amaranthus retroflexus L.” value in test [1] is reported as 5 (Level 5: growth control rate is above 85%).

For `Cn1nnnc1NC(=O)c1ccnc(-c2cccc(F)c2)c1Cl` [Compound 1-16], the “Weeding effect … Chenopodium album” value with Chenopodium album is recorded as 5 (Level 5: growth control rate is above 85%). The “Weeding effect … Descurainia sophia” value in the test with Descurainia sophia was 5 (Level 5: growth control rate is above 85%). Further, in the test on Abutilon theophrasti, the “Weeding effect … Abutilon theophrasti” value was 5 (Level 5: growth control rate is above 85%). Besides, the “Weeding effect … Amaranthus retroflexus L.” value in test [1] is 5 (Level 5: growth control rate is above 85%).

On to `C=Cc1ccc(-c2nccc(C(=O)Nc3nnnn3C)c2Cl)cc1` [Compound 1-1918], for which the “Weeding effect … Chenopodium album” value with Chenopodium album is listed as 5 (Level 5: growth control rate is above 85%). In addition, the “Weeding effect … Descurainia sophia” value in the test on Descurainia sophia is given as 5 (Level 5: growth control rate is above 85%). Also, in the test with Abutilon theophrasti, the “Weeding effect … Abutilon theophrasti” value was 5 (Level 5: growth control rate is above 85%). For the same molecule, in test [1], the “Weeding effect … Amaranthus retroflexus L.” value is on record as 5 (Level 5: growth control rate is above 85%).

For `Cn1nnnc1NC(=O)c1ccnc(-c2cc(C(=O)O)cc([N+](=O)[O-])c2)c1Cl` [Compound 1-100], in the test with Chenopodium album, the “Weeding effect … Chenopodium album” value is listed as 5 (Level 5: growth control rate is above 85%). Further, the “Weeding effect … Descurainia sophia” value in the test with Descurainia sophia is 5 (Level 5: growth control rate is above 85%). For the same molecule, in the test on Abutilon theophrasti, the “Weeding effect … Abutilon theophrasti” value was 5 (Level 5: growth control rate is above 85%). Also, the “Weeding effect … Amaranthus retroflexus L.” value in test [1] is listed as 5 (Level 5: growth control rate is above 85%).

`Cn1ncnc1NC(=O)c1ccnc(-c2ccc(F)cc2)c1Cl` [Compound 1-334]: the “Weeding effect … Chenopodium album” value in the test on Chenopodium album is reported as 5 (Level 5: growth control rate is above 85%). Also, the “Weeding effect … Descurainia sophia” value in the test on Descurainia sophia is on record as 5 (Level 5: growth control rate is above 85%). Besides, the “Weeding effect … Abutilon theophrasti” value in the test with Abutilon theophrasti is given as 5 (Level 5: growth control rate is above 85%). For the same molecule, the “Weeding effect … Amaranthus retroflexus L.” value in test [1] is listed as 5 (Level 5: growth control rate is above 85%).

As for `C=CCc1c(C(=O)Nc2nnnn2C)ccnc1-c1ccc(F)cc1` [Compound 1-219], in the test with Chenopodium album, the “Weeding effect … Chenopodium album” value is listed as 5 (Level 5: growth control rate is above 85%). In addition, the “Weeding effect … Descurainia sophia” value with Descurainia sophia is recorded as 5 (Level 5: growth control rate is above 85%). In addition, the “Weeding effect … Abutilon theophrasti” value in the test on Abutilon theophrasti is 5 (Level 5: growth control rate is above 85%). For the same molecule, the “Weeding effect … Amaranthus retroflexus L.” value in test [1] is listed as 5 (Level 5: growth control rate is above 85%).

Take `CN(C)c1c(C(=O)Nc2nnnn2C)ccnc1-c1ccc(F)cc1` [Compound 1-208]: the “Weeding effect … Chenopodium album” value in the test with Chenopodium album was 5 (Level 5: growth control rate is above 85%). Also, the “Weeding effect … Descurainia sophia” value with Descurainia sophia was 5 (Level 5: growth control rate is above 85%). Further, in the test on Abutilon theophrasti, the “Weeding effect … Abutilon theophrasti” value is 5 (Level 5: growth control rate is above 85%). Also, the “Weeding effect … Amaranthus retroflexus L.” value in test [1] was 5 (Level 5: growth control rate is above 85%).

Consider `COc1ccc(Cl)c(-c2nccc(C(=O)Nc3nnnn3C)c2Cl)c1` [Compound 1-103], for which the “Weeding effect … Chenopodium album” value in the test on Chenopodium album is 5 (Level 5: growth control rate is above 85%). Besides, the “Weeding effect … Descurainia sophia” value with Descurainia sophia was 5 (Level 5: growth control rate is above 85%). The “Weeding effect … Abutilon theophrasti” value in the test on Abutilon theophrasti is recorded as 5 (Level 5: growth control rate is above 85%). The “Weeding effect … Amaranthus retroflexus L.” value in test [1] is on record as 5 (Level 5: growth control rate is above 85%).

With `COCCc1c(C(=O)Nc2nnnn2C)ccnc1-c1ccc(F)cc1` [Compound 1-217], the “Weeding effect … Chenopodium album” value with Chenopodium album is 5 (Level 5: growth control rate is above 85%). Besides, in the test on Descurainia sophia, the “Weeding effect … Descurainia sophia” value was 5 (Level 5: growth control rate is above 85%). Besides, the “Weeding effect … Abutilon theophrasti” value in the test with Abutilon theophrasti was 5 (Level 5: growth control rate is above 85%). For the same molecule, the “Weeding effect … Amaranthus retroflexus L.” value in test [1] is reported as 5 (Level 5: growth control rate is above 85%).

In the case of `CSc1c(C(=O)Nc2nnnn2C)ccnc1-c1ccc(F)cc1` [Compound 1-203], in the test with Chenopodium album, the “Weeding effect … Chenopodium album” value is on record as 5 (Level 5: growth control rate is above 85%). Moreover, in the test with Descurainia sophia, the “Weeding effect … Descurainia sophia” value was 5 (Level 5: growth control rate is above 85%). In addition, the “Weeding effect … Abutilon theophrasti” value with Abutilon theophrasti is 5 (Level 5: growth control rate is above 85%). The “Weeding effect … Amaranthus retroflexus L.” value in test [1] is listed as 5 (Level 5: growth control rate is above 85%).

As to `COC(C)c1c(C(=O)Nc2nnnn2C)ccnc1-c1ccc(F)cc1` (stereo not shown) [Compound 1-215], in the test with Chenopodium album, the “Weeding effect … Chenopodium album” value is 5 (Level 5: growth control rate is above 85%). In the test on Descurainia sophia, the “Weeding effect … Descurainia sophia” value is given as 5 (Level 5: growth control rate is above 85%). Also, the “Weeding effect … Abutilon theophrasti” value with Abutilon theophrasti is reported as 5 (Level 5: growth control rate is above 85%). Further, the “Weeding effect … Amaranthus retroflexus L.” value in test [1] is on record as 5 (Level 5: growth control rate is above 85%).

In the case of `C#Cc1c(C(=O)Nc2nnnn2C)ccnc1-c1ccc(F)cc1` [Compound 1-220], the “Weeding effect … Chenopodium album” value in the test with Chenopodium album is recorded as 5 (Level 5: growth control rate is above 85%). The “Weeding effect … Descurainia sophia” value in the test with Descurainia sophia is 5 (Level 5: growth control rate is above 85%). In the test with Abutilon theophrasti, the “Weeding effect … Abutilon theophrasti” value was 5 (Level 5: growth control rate is above 85%). Moreover, the “Weeding effect … Amaranthus retroflexus L.” value in test [1] is reported as 5 (Level 5: growth control rate is above 85%).

Regarding `Cn1nnnc1NC(=O)c1ccnc(-c2ccnn2C2CCCCO2)c1Cl` (stereo not shown) [Compound 1-182], the “Weeding effect … Chenopodium album” value with Chenopodium album is reported as 5 (Level 5: growth control rate is above 85%). For the same molecule, in the test with Descurainia sophia, the “Weeding effect … Descurainia sophia” value was 5 (Level 5: growth control rate is above 85%). Also, in the test on Abutilon theophrasti, the “Weeding effect … Abutilon theophrasti” value is listed as 5 (Level 5: growth control rate is above 85%). Moreover, in test [1], the “Weeding effect … Amaranthus retroflexus L.” value is given as 5 (Level 5: growth control rate is above 85%).

In the case of `Cn1nnnc1NC(=O)c1ccnc(-c2ccc(I)cc2)c1Cl` [Compound 1-25], in the test with Chenopodium album, the “Weeding effect … Chenopodium album” value is on record as 5 (Level 5: growth control rate is above 85%). Also, the “Weeding effect … Descurainia sophia” value in the test on Descurainia sophia is recorded as 5 (Level 5: growth control rate is above 85%). For the same molecule, the “Weeding effect … Abutilon theophrasti” value with Abutilon theophrasti is 5 (Level 5: growth control rate is above 85%). Besides, in test [1], the “Weeding effect … Amaranthus retroflexus L.” value was 5 (Level 5: growth control rate is above 85%).

As to `Cc1ccccc1-c1nccc(C(=O)Nc2nnnn2C)c1Cl` [Compound 1-9], the “Weeding effect … Chenopodium album” value with Chenopodium album is recorded as 5 (Level 5: growth control rate is above 85%). For the same molecule, in the test on Descurainia sophia, the “Weeding effect … Descurainia sophia” value is reported as 5 (Level 5: growth control rate is above 85%). Also, in the test with Abutilon theophrasti, the “Weeding effect … Abutilon theophrasti” value is listed as 5 (Level 5: growth control rate is above 85%). In addition, in test [1], the “Weeding effect … Amaranthus retroflexus L.” value is recorded as 5 (Level 5: growth control rate is above 85%).
